Results on eleven compounds are retold here after PubChem BioAssay (NCI).

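All cell lines were grown in 96-well plates and treated with compound for 48 hours. The concentration for full growth arrest is given as TGI.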

Among the test systems are PC-3 prostate; HOP-62 NSCLC; ACHN renal; NCI-H460 lung; UACC-62 melanoma; T-47D breast; M14 melanoma; SK-MEL-2 melanoma; LOX IMVI melanoma; RXF 393 renal; 786-0 renal; UACC-257 melanoma; A498 renal; CAKI-1 renal; HL-60(TB) leukemia; HOP-92 NSCLC.
Holding throughout (assay): NCI tumour cell line growth inhibition, 48 h

As for `CC(NC(=O)C(N)CC(=O)O)NC(=O)C1CCC1` (centres undefined), the TGI in the assay with PC-3 prostate, in the assay with HOP-62 NSCLC, with ACHN renal, in the assay with NCI-H460 lung, in the assay on UACC-62 melanoma and in the assay with T-47D breast was above 100 µM throughout. In addition, the TGI in the assay with M14 melanoma, in the assay on SK-MEL-2 melanoma, in the assay with LOX IMVI melanoma, in the assay on RXF 393 renal, with 786-0 renal and in the assay with UACC-257 melanoma was above 100 µM each time. Further, the TGI in the assay on A498 renal and in the assay on CAKI-1 renal was above 100 µM throughout.

On to `CN(N)c1cc(=O)[nH]c(=O)[nH]1`, for which the TGI in the assay on PC-3 prostate, with HOP-62 NSCLC, in the assay on ACHN renal, in the assay on HL-60(TB) leukemia, with NCI-H460 lung and in the assay on UACC-62 melanoma was above 100 µM throughout. Further, the TGI in the assay with T-47D breast, in the assay with LOX IMVI melanoma, in the assay on 786-0 renal, with UACC-257 melanoma, in the assay with A498 renal and in the assay with CAKI-1 renal was above 100 µM in each case.

`Oc1ccc(N=C2CCC(=C(c3ccccc3)c3ccc(Nc4ccc(O)cc4)cc3)CC2)cc1`: the TGI with PC-3 prostate, in the assay with ACHN renal, in the assay with NCI-H460 lung, in the assay with UACC-62 melanoma, in the assay with M14 melanoma and in the assay on HOP-92 NSCLC was above 100 µM each time. The TGI in the assay with SK-MEL-2 melanoma, with LOX IMVI melanoma, in the assay with RXF 393 renal, with 786-0 renal, in the assay with UACC-257 melanoma and with A498 renal was above 100 µM in each case. The TGI in the assay on CAKI-1 renal was above 100 µM.

Turning to `Nc1cc(N2CCCC2)nc(=O)n1-c1ccccc1`, the TGI with PC-3 prostate, with HOP-62 NSCLC, with ACHN renal, in the assay with HL-60(TB) leukemia, with NCI-H460 lung and with M14 melanoma was above 100 µM each time. Also, the TGI with HOP-92 NSCLC, with SK-MEL-2 melanoma, in the assay with LOX IMVI melanoma, in the assay with 786-0 renal, with UACC-257 melanoma and with CAKI-1 renal was above 100 µM throughout.

Turning to `Cc1ncc2c(=O)c3c(oc2n1)c1ccccc1n3Cc1ccccc1`, the TGI in the assay with PC-3 prostate is above 100 µM; in the assay on HOP-62 NSCLC it was 79.5 µM; in the assay with ACHN renal it was above 100 µM; in the assay on HL-60(TB) leukemia, above 100 µM; in the assay with NCI-H460 lung, above 100 µM; in the assay on UACC-62 melanoma it was 93.9 µM. Also, the TGI in the assay with T-47D breast, with LOX IMVI melanoma, in the assay on RXF 393 renal, in the assay on 786-0 renal, in the assay on UACC-257 melanoma and in the assay on CAKI-1 renal was above 100 µM each time.

With `O=C(O)c1ccc(NC(NC(=O)C(C(F)(F)F)C(F)(F)F)(C(F)(F)F)C(F)(F)F)cc1`, the TGI in the assay on PC-3 prostate, with ACHN renal, in the assay on HL-60(TB) leukemia, with T-47D breast, in the assay with M14 melanoma and with SK-MEL-2 melanoma was above 100 µM in each case. The TGI in the assay with LOX IMVI melanoma, in the assay with RXF 393 renal, in the assay on 786-0 renal, with UACC-257 melanoma, with A498 renal and in the assay on CAKI-1 renal was above 100 µM throughout.

Regarding `O=c1ccn(C2OC(CO)C(O)C2[Se]c2ccccc2)c(=O)[nH]1` (centres undefined), the TGI in the assay on PC-3 prostate is above 100 µM; with HOP-62 NSCLC it was above 100 µM; in the assay with ACHN renal, above 100 µM; with HL-60(TB) leukemia, above 100 µM; in the assay on NCI-H460 lung it was above 100 µM; in the assay with UACC-62 melanoma, 7.31 µM. In addition, the TGI is above 100 µM in the assay on M14 melanoma; above 100 µM with HOP-92 NSCLC; above 100 µM with SK-MEL-2 melanoma; above 100 µM in the assay with LOX IMVI melanoma; above 100 µM in the assay on 786-0 renal; 14.2 µM with UACC-257 melanoma. Moreover, the TGI in the assay on A498 renal and in the assay with CAKI-1 renal was above 100 µM each time.

`C[n+]1c(-c2ccc(/C=N/NC(=O)C(=O)N/N=C/c3ccc(-c4cn5ccsc5[n+]4C)cc3)cc2)cn2ccsc21`: the TGI in the assay with PC-3 prostate, with HOP-62 NSCLC, in the assay with ACHN renal, in the assay on HL-60(TB) leukemia, in the assay on NCI-H460 lung and in the assay on T-47D breast was above 100 µM in each case. For the same compound, the TGI in the assay on M14 melanoma, in the assay with 786-0 renal and in the assay on UACC-257 melanoma was above 100 µM in each case.

As to `CN(C)CCN=C1Nc2ccccc2C(=S)N2CSCC12` (centres undefined), the TGI in the assay on PC-3 prostate, in the assay with HOP-62 NSCLC, with ACHN renal, in the assay with NCI-H460 lung, with UACC-62 melanoma and in the assay with T-47D breast was above 100 µM each time. Further, the TGI in the assay with M14 melanoma, in the assay on SK-MEL-2 melanoma, in the assay on LOX IMVI melanoma, with RXF 393 renal, with 786-0 renal and in the assay on UACC-257 melanoma was above 100 µM throughout. In addition, the TGI in the assay on A498 renal and in the assay on CAKI-1 renal was above 100 µM in each case.

Regarding `COc1cc(OC)c2nc(C)c3c(c2c1)NCC3`, the TGI in the assay on PC-3 prostate came out at 20 µM; in the assay with HOP-62 NSCLC, 21.6 µM; in the assay with ACHN renal it was 26.2 µM; in the assay with HL-60(TB) leukemia, 40.7 µM; in the assay with NCI-H460 lung, 12 µM; in the assay with UACC-62 melanoma, 22.4 µM. For the same compound, the TGI came to 24.1 µM in the assay with M14 melanoma; 30.9 µM with HOP-92 NSCLC; 21.4 µM in the assay on SK-MEL-2 melanoma; 15 µM with LOX IMVI melanoma; 18.1 µM in the assay on RXF 393 renal; 17.2 µM in the assay with 786-0 renal. Moreover, the TGI is 15.9 µM with UACC-257 melanoma and 27.7 µM with A498 renal.

As for `O=C(O)CCc1ccc2c(c1)C(=O)CC2`, the TGI in the assay with HOP-62 NSCLC, with ACHN renal, in the assay with HL-60(TB) leukemia, with NCI-H460 lung, in the assay with UACC-62 melanoma and in the assay with T-47D breast was above 100 µM throughout. Moreover, the TGI in the assay on M14 melanoma, in the assay with SK-MEL-2 melanoma, in the assay with LOX IMVI melanoma, with RXF 393 renal, in the assay on 786-0 renal and with UACC-257 melanoma was above 100 µM throughout. For the same compound, the TGI in the assay with A498 renal was above 100 µM.
